We go through 3 compounds from ChEMBL document CHEMBL3124743, “Imaging evaluation of 5HT2C agonists, [(11)C]WAY-163909 and [(11)C]vabicaserin, formed by Pictet-Spengler cyclization” (J Med Chem, 2014).

In data set [1] the test system is Brain. Kind of data set: Drug uptake in Papio anubis assessed as retention time in brain at 2.33 mCi, iv by PET imaging. The format is ADME, organism-based.
The nature of data set [2]: Octanol-water partition coefficient, log D of the compound at pH 7.4. The format is physicochemical.
Data set [3] concerns Brain. Nature of the data set: Drug uptake in Sprague-Dawley rat in regions outside brain at 0.303 mCi, iv by PET imaging. The format is ADME, organism-based. Conditions: in vivo; call rule not given here.
In data set [4] the test system is Brain. Kind of data set: Drug uptake in Sprague-Dawley rat assessed as retention time in brain at 0.303 mCi, iv by PET imaging. The format is ADME, organism-based.
Data set [5] is described as follows: Fraction unbound in Papio Anubis plasma at 2.33 mCi, iv by PET imaging. The format is ADME, organism-based.
The subject of data set [6] is Brain. Kind of data set: Drug uptake in Papio anubis assessed as maximal uptake in brain at 2.33 mCi, iv after 20 mins of injection by PET imaging. The note with it: in vivo. The format is ADME, organism-based.
Data set [7] concerns the target T1, 5-hydroxytryptamine receptor 2C (Homo sapiens, UniProt P28335).
T1 sequence (P28335 whole entry): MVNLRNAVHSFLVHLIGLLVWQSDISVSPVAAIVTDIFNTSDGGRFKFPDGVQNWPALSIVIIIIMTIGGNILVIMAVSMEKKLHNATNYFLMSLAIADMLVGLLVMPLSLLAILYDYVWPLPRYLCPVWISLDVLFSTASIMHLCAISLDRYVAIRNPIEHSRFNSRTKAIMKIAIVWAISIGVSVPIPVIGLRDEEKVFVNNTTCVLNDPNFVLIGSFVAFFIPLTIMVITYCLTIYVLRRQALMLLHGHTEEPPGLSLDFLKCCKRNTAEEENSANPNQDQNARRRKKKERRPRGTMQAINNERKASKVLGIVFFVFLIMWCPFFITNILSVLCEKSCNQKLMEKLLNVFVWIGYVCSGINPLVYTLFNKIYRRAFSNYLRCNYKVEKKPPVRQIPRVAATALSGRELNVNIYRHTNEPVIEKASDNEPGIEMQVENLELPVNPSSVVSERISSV
Nature of the data set: Displacement of [125I]DOI from human 5-HT2C receptor.

The subject of data set [8] is Brain. Kind of data set: Drug uptake in Sprague-Dawley rat assessed as retention time in brain at 0.99 mCi, iv by PET imaging. The format is ADME, organism-based.

For `c1cc2c3c(c1)[C@H]1CCC[C@H]1N3CCN[11CH2]2`, the Retention_time with Brain [1] came to 80 min; in the data set on Brain [4], 60 min. The same compound had a logD in data set [2] of 1.53. Besides, the Drug uptake result with Brain [3] and with Brain [6] was “Active” throughout. The fraction unbound in data set [5] came to 0.265.

In data set [7], `c1cc2c3c(c1)[C@H]1CCC[C@H]1CN3CCNC2` [VABICASERIN] gave a Ki of 3 nM.

On to `c1cc2c3c(c1)[C@H]1CCC[C@H]1CN3CCN[11CH2]2`, for which the Retention_time in the data set on Brain [8] came to 60 min.
